According to ChEMBL document CHEMBL5537193, “Multitargeting HDAC Inhibitors Containing a RAS/RAF Protein Interfering Unit” (J Med Chem, 2024):
Activity calls are given as the source filed them. No cut-off for these calls is given here.

Key:
PANC-1 [1] = experiment: Effect on MEK protein expression in human PANC-1 cells at 2 uM incubated for 24 hrs by Western blot analysis; format: functional, cell-based
Mus musculus [2] = experiment: In vivo inhibition of MAPK signaling pathway in BALB/c mouse xenografted with human HT-29 cells assessed as inhibition of ERK1/2 phosphorylation administered intraperitoneally once every 2 days for 12 times and measured after 24 days by Western blot analysis; format: functional; details: dose 7.5-15 mg/kg, route ip, time 24.0 day
PANC-1 [3] = experiment: Induction of apoptosis in human PANC-1 cells assessed as apoptotic cells at 2 uM incubated for 24 hrs by flow cytometric analysis relative to control; format: functional
[4] = Toxicity in BALB/c nude mouse xenografted with human HT-29 cells assessed as change in liver histopathology at 10 to 15 mg/kg, ip administered once daily for 24 days by H&E staining based analysis; format: organism-based; details: in vivo, 576 h, dose 10-15 mg/kg, time 24 day
MV4-11 = experiment: cells; details: Homo sapiens, MV4-11, 72 h
Description: Cytotoxicity against human MV4-11 cells assessed as inhibition of cell growth incubated for 72 hrs by MTT assay

HT-29 [5] = experiment: Effect on ERK1/2 protein expression in human HT-29 cells at 2 uM incubated for 24 hrs by Western blot analysis; format: functional, cell-based
A-431 = experiment: cells; details: Homo sapiens, A-431, 72 h
Description: Cytotoxicity against human A-431 cells assessed as inhibition of cell growth incubated for 72 hrs by MTT assay

HT-29 [6] = experiment: Induction of apoptosis in human HT-29 cells assessed as apoptotic ratio at 2 uM incubated for 24 hrs by flow cytometric analysis; format: functional
HT-29 [7] = experiment: Inhibition of MAPK signaling pathway in human HT-29 cells assessed as inhibition of MEK phosphorylation at 2 uM incubated for 24 hrs by Western blot analysis; format: cell-based
HT-29 [8] = experiment: Induction of apoptosis in human HT-29 cells incubated for 24 hrs by flow cytometric analysis; format: functional, cell-based; details: dose 1-4 µM
[9] = target: T1, Serine/threonine-protein kinase PLK1 (Homo sapiens, UniProt P53350); experiment: Inhibition of PLK1 (unknown origin) at 10 uM relative to control
HT-29 [10] = experiment: cells; details: Homo sapiens, HT-29, 72 h
Description: Cytotoxicity against human HT-29 cells assessed as inhibition of cell growth incubated for 72 hrs by MTT assay

Histone deacetylase 9 = Histone deacetylase 9 (Homo sapiens, UniProt Q9UKV0); experiment: Inhibition of HDAC9 (unknown origin)
[11] = Metabolic stability in human liver microsomes assessed as intrinsic clearance at 1 uM measured upto 40 mins by LC-MS/MS analysis; format: ADME, Microsome; details: read-out: CLH
HT-29 [12] = experiment: Antitumor activity against human HT-29 xenografted in BALB/c nude mouse assessed as tumor growth inhibition at 7.5 mg/kg, ip administered once every 2 days for 12 times for 24 days relative to control; format: functional; details: HT-29, 576 h, time 24 day, read-out: TGI
Mus musculus [13] = experiment: In vivo inhibition of HDAC3 in BALB/c mouse xenografted with human HT-29 cells assessed as induction of histone H3 acetylation administered intraperitoneally once every 2 days for 12 times and measured after 24 days by Western blot analysis; format: functional; details: dose 7.5-15 mg/kg, route ip, time 24.0 day
[14] = MRT (0 to t) in Sprague-Dawley rat at 15 mg/kg, ip measured after 24 hrs by LC-MS/MS analysis; format: ADME, organism-based; details: in vivo
[15] = Toxicity in BALB/c nude mouse xenografted with human HT-29 cells assessed as change in kidney histopathology at 10 to 15 mg/kg, ip administered once daily for 24 days by H&E staining based analysis; format: organism-based; details: in vivo, 576 h, dose 10-15 mg/kg, time 24 day
[16] = target: T1, Serine/threonine-protein kinase PLK1; experiment: Inhibition of PLK1 (unknown origin)
[17] = MRT (0 to infinity) in Sprague-Dawley rat at 15 mg/kg, ip measured after 24 hrs by LC-MS/MS analysis; format: ADME, organism-based; details: in vivo
[18] = Half-life in Sprague-Dawley rat at 15 mg/kg, ip measured after 24 hrs by LC-MS/MS analysis; format: ADME, organism-based; details: in vivo
Histone deacetylase 4 = Histone deacetylase 4 (Homo sapiens, UniProt P56524); experiment: Inhibition of HDAC4 (unknown origin)
PANC-1 [19] = experiment: Inhibition of MAPK signaling pathway in human PANC-1 cells assessed as inhibition of MEK phosphorylation at 2 uM incubated for 24 hrs by Western blot analysis; format: cell-based
[20] = Cmax in Sprague-Dawley rat at 15 mg/kg, ip measured after 24 hrs by LC-MS/MS analysis; format: ADME, organism-based; details: in vivo
PANC-1 [21] = experiment: cells; details: Homo sapiens, PANC-1, 72 h
Description: Cytotoxicity against human PANC-1 cells assessed as inhibition of cell growth incubated for 72 hrs by MTT assay

[22] = Metabolic stability in rat liver microsomes assessed as half-life at 1 uM measured upto 40 mins by LC-MS/MS analysis; format: ADME, Microsome
[23] = Metabolic stability in human liver microsomes assessed as half-life at 1 uM measured upto 40 mins by LC-MS/MS analysis; format: ADME, Microsome
[24] = Tmax in Sprague-Dawley rat at 15 mg/kg, ip measured after 24 hrs by LC-MS/MS analysis; format: ADME, organism-based; details: in vivo
NCI-H1975 = experiment: cells; details: Homo sapiens, NCI-H1975, 72 h
Description: Cytotoxicity against human NCI-H1975 cells assessed as inhibition of cell growth incubated for 72 hrs by MTT assay

HT-29 [25] = experiment: Effect on RAS protein expression in human HT-29 cells at 2 uM incubated for 24 hrs by Western blot analysis; format: functional, cell-based
[26] = Toxicity in BALB/c nude mouse xenografted with human HT-29 cells assessed as change in spleen histopathology at 10 to 15 mg/kg, ip administered once daily for 24 days by H&E staining based analysis; format: organism-based; details: in vivo, 576 h, dose 10-15 mg/kg, time 24 day
SGC-7901 = experiment: cells; details: Homo sapiens, SGC-7901, 72 h
Description: Cytotoxicity against human SGC-7901 cells assessed as inhibition of cell growth incubated for 72 hrs by MTT assay

PANC-1 [27] = experiment: Effect on ERK1/2 protein expression in human PANC-1 cells at 2 uM incubated for 24 hrs by Western blot analysis; format: functional, cell-based
HT-29 [28] = experiment: Effect on alpha-tubulin expression in human HT-29 cells at 2 uM incubated for 24 hrs by Western blot analysis; format: functional, cell-based
PANC-1 [29] = experiment: Inhibition of MAPK signaling pathway in human PANC-1 cells assessed as inhibition of C-RAF phosphorylation at Ser338 residue at 2 uM incubated for 24 hrs by Western blot analysis; format: cell-based
L02 = experiment: cells; details: Homo sapiens, L02, 72 h
Description: Cytotoxicity against human L02 cells assessed as inhibition of cell growth incubated for 72 hrs by MTT assay

HT-29 [30] = experiment: Effect on Histone H3 expression in human HT-29 cells at 2 uM incubated for 24 hrs by Western blot analysis; format: functional, cell-based
[31] = Toxicity in BALB/c nude mouse xenografted with human HT-29 cells assessed as change in lung histopathology at 10 to 15 mg/kg, ip administered once daily for 24 days by H&E staining based analysis; format: organism-based; details: in vivo, 576 h, dose 10-15 mg/kg, time 24 day
[32] = Metabolic stability in mouse liver microsomes assessed as intrinsic clearance at 1 uM measured upto 40 mins by LC-MS/MS analysis; format: ADME, Microsome; details: read-out: CLH
HT-29 [33] = experiment: Antitumor activity against human HT-29 cells xenografted in BALB/c nude mouse assessed as tumor growth inhibition at 7.5 mg/kg, ip administered once a day for 24 days relative to control; format: functional; details: HT-29, 576 h, time 24 day, read-out: TGI
HT-29 [34] = experiment: Cell cycle arrest in human HT-29 cells assessed as accumulation of cells at G2-M phase at 2 uM incubated for 24 hrs by PI/RNase staining based flow cytometric analysis; format: functional

T1 sequence (P53350 whole entry): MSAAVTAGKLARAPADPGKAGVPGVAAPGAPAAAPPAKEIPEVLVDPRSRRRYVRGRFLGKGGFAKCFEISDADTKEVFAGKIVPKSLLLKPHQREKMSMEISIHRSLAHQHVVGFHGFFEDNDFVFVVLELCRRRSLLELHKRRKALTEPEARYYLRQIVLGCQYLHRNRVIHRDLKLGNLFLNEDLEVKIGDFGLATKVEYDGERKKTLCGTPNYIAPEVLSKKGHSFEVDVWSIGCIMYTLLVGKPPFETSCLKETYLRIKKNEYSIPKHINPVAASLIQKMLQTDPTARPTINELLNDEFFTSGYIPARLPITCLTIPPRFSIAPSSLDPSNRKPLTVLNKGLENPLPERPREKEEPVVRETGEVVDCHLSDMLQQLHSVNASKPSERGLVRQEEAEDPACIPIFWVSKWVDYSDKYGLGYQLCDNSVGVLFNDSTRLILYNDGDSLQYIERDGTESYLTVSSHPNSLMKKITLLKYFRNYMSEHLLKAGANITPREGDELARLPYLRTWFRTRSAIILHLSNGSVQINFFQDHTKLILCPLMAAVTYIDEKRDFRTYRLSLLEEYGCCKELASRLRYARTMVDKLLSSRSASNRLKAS
Histone deacetylase 4, sequence (P56524 whole entry): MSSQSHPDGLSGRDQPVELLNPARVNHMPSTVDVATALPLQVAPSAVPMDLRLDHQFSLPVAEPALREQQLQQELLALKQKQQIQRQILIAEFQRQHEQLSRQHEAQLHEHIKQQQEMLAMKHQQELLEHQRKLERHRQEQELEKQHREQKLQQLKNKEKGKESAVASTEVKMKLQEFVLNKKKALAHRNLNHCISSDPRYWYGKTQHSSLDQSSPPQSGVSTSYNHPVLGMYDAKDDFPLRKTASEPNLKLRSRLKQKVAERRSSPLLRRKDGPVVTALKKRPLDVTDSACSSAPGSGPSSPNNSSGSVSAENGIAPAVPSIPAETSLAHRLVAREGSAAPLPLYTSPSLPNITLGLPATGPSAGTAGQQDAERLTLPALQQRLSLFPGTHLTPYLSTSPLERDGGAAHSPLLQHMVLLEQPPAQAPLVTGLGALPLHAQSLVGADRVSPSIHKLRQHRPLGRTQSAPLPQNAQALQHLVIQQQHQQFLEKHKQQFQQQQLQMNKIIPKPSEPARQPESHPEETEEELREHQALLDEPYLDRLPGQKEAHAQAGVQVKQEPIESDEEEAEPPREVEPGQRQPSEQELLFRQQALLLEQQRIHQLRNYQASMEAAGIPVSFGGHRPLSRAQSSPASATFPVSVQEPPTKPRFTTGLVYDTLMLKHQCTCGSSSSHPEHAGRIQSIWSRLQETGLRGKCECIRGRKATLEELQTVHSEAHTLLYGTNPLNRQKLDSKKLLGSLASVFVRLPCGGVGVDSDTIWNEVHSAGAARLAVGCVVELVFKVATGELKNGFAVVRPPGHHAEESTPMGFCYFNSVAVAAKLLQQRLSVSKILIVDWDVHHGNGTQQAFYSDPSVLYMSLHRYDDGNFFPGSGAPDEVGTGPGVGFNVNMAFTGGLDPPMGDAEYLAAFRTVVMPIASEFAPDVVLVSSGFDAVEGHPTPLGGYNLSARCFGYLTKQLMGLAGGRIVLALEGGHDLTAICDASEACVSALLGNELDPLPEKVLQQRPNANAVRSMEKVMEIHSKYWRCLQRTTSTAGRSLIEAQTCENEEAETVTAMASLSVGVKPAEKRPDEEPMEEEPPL
Histone deacetylase 9, sequence (Q9UKV0 whole entry): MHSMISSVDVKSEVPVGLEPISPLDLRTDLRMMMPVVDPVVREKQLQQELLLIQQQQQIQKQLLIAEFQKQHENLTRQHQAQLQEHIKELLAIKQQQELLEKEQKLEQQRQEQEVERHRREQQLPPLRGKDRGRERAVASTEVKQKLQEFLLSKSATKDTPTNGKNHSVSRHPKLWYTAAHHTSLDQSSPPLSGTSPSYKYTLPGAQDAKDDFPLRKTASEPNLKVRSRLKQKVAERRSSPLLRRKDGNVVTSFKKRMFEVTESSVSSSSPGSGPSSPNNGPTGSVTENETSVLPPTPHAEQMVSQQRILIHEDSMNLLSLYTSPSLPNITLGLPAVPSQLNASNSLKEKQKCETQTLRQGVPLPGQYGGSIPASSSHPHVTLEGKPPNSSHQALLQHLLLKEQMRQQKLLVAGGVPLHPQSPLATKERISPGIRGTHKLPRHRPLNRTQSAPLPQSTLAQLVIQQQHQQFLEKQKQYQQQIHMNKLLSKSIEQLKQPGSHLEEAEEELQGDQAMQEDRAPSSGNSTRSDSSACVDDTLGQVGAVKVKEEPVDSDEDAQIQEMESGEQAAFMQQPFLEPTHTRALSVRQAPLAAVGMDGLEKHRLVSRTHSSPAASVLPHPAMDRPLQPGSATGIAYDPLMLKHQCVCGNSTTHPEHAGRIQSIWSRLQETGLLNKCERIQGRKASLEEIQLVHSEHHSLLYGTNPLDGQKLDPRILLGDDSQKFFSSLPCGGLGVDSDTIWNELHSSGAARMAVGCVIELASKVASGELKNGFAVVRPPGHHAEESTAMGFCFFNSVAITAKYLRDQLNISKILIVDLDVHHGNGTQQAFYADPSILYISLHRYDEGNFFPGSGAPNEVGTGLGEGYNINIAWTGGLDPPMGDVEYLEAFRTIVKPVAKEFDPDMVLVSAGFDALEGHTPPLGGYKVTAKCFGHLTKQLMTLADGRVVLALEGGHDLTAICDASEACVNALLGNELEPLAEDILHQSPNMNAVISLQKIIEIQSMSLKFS

IC50 (MV4-11): 0.08 µM | IC50 (A-431): 0.55 µM | inhibition [9]: 100% | IC50 (HT-29 [10]): 0.04 µM | IC50 (Histone deacetylase 9): 0.0837 µM | CLint scaled at 1 µM [11]: 14 mL/min/kg | MRT last at 24 h [14]: 1.34 h | IC50 [16]: 0.0178 µM | inhibition [16]: Dose-Dependent Effect | MRT inf [17]: 1.34 h | half-life [18]: 0.772 h | IC50 (Histone deacetylase 4): 0.0751 µM | Cmax [20]: 2800 ng/mL | IC50 (PANC-1 [21]): 0.05 µM | half-life at 1 µM [22]: 5.52 min | half-life at 1 µM [23]: 2.07 h | Tmax [24]: 0.5 h | IC50 (NCI-H1975): 0.05 µM | IC50 (SGC-7901): 0.17 µM | CLint scaled at 1 µM [32]: 191 mL/min/kg
Compound: COc1cc(OC)c(/C=C/S(=O)(=O)Cc2ccc(OC)c(NCC(=O)NO)c2)c(OC)c1
Activity (PANC-1 [1]): inactive | inhibition (Mus musculus [2]): Dose-Dependent Effect | Activity (PANC-1 [3]): 57.4% | Activity [4]: Non-Toxic | Activity (HT-29 [5]): inactive | Activity (HT-29 [6]): 51.5% | inhibition (HT-29 [7]): Active | Activity (HT-29 [8]): Dose-Dependent Effect | inhibition in vivo at 7.5 mg/kg (HT-29 [12]): 64.3% | inhibition (Mus musculus [13]): Dose-Dependent Effect | Activity [15]: Non-Toxic | inhibition (PANC-1 [19]): Active | Activity (HT-29 [25]): inactive | Activity [26]: Non-Toxic | Activity (PANC-1 [27]): inactive | Activity (HT-29 [28]): inactive | inhibition (PANC-1 [29]): Active | IC50 (L02): > 40 µM | Activity (HT-29 [30]): inactive | Activity [31]: Non-Toxic | inhibition in vivo at 7.5 mg/kg (HT-29 [33]): 70.1% | Activity (HT-29 [34]): Active
